Laboratory results: patent EP1389624A1, “Phosphorous-containing cysteine and serine protease inhibitors” (CEPHALON, INC., priority 1995, dated 1997)

Target: T1, Calpain I (Homo sapiens, UniProt P07384)
T1 sequence (P07384 1-714): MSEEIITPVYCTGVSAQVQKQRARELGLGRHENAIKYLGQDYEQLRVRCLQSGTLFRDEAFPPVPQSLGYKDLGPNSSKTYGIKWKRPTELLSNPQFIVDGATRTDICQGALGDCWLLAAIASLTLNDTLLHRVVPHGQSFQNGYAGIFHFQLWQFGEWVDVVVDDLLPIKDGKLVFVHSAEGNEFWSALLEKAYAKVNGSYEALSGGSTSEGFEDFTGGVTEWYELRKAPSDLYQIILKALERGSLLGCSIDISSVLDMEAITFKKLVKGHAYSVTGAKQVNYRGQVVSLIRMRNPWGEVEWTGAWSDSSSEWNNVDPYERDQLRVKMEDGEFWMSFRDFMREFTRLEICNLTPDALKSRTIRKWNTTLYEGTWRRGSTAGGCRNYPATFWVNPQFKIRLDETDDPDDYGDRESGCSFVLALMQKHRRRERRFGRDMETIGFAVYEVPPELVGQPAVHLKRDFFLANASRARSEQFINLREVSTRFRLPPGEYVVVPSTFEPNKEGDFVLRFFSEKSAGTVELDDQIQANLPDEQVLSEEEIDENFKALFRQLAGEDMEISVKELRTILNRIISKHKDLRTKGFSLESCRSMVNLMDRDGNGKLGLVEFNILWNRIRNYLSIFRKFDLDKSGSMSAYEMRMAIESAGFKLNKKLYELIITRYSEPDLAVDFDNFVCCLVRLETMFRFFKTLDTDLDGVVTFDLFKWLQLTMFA
T1 sequence (P04632 1-268 partner): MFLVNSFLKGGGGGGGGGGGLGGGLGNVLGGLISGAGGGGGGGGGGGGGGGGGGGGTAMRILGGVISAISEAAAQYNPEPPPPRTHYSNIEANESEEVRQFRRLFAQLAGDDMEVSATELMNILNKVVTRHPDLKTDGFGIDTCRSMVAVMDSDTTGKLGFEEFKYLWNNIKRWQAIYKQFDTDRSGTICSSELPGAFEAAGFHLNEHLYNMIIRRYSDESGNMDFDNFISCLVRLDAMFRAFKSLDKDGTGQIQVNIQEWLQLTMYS
Assay: Inhibition and rate of inactivation of cysteine protease (calpain I) activity, Succ-Leu-Tyr-MNA substrate hydrolysis
Conditions: for kinact/KI: read-out: kobs/I x 10^-3 M^-1s^-1; for inhibition at 0.1 µM: read-out: % Inhib. @ 0.1 uM
Procedure: To evaluate inhibitory activity, stock solutions (40 times concentrated) of each compound to be tested were prepared in 100% anhydrous DMSO and 5 µl of each inhibitor preparation were aliquoted into each of three wells of a 96 well plate. […] To start the reaction, 20 µl of 50 mM CaCl2 in assay buffer was added to all wells of the plate, excepting three, which were used as background signal baseline controls. Substrate hydrolysis was monitored every 5 minutes for a total of 30 minutes. Substrate hydrolysis in the absence of inhibitor was linear for up to 15 minutes.
Inhibition of calpain I activity was calculated as the percent decrease in the rate of substrate hydrolysis in the presence of inhibitor (vi) relative to the rate in its absence (vo). Comparison between vo and vi was made within the linear range for substrate hydrolysis. […] Apparent second order rate constants were determined from analysis of reaction progress curves under pseudo-first order conditions. Each determination represents the mean of three or more independent single cuvette analyses continually monitored via a Perkin-Elmer LS50B spectrofluorimeter.

SMILES | kinact/KI | further results
Cc1ccccc1P(=O)(OCC(=O)[C@H](Cc1ccccc1)NC(=O)[C@H](CC(C)C)NC(=O)OCc1ccccc1)c1ccccc1C [Example 55, (3S)-[3-[(N-Benzyloxycarbonyl-L-leucyl)amino]-2-oxo-4-phenylbutyl] bis(2-methylphenyl)phosphinate] | 31000 M⁻¹ s⁻¹ | 
CC(C)C[C@H](NC(=O)C12OC(CO)C(O)C1OC(C)(C)O2)C(=O)N[C@@H](Cc1ccccc1)C(=O)COP(=O)(OCc1ccccc1)OCc1ccccc1 (stereo partly drawn) [Example 38, Dibenzyl (3S)-[3-[(N-monoisopropylidine-2-keto-L-gulonyl-L-leucyl)amino]-2-oxo-4-phenylbutyl] phosphate] |  | kobs/I x 10^-3 M^-1s^-1 (apparent second order rate constant of inactivation from reaction progress curves under pseudo-first order conditions, mean of three or more determinations): 116 x 10^-3 M^-1s^-1
Cc1ccccc1COP(=O)(OCC(=O)[C@H](Cc1ccccc1)NC(=O)[C@H](CC(C)C)NC(=O)OCc1ccccc1)OCc1ccccc1C [Example 39, Bis(2-methylbenzyl) (3S)-[3-[(N-Benzyloxycarbonyl-L-leucyl)amino]-2-oxo-4-phenylbutyl] phosphate] | 365000 M⁻¹ s⁻¹ | 
CC(C)C[C@H](NC(=O)OCc1ccccc1)C(=O)N[C@@H](Cc1ccccc1)C(=O)COP(=O)(OCc1ccccc1)c1ccccc1 (stereo partly drawn) [Example 49, Benzyl (3S)-[3-[(N-Benzyloxycarbonyl-L-leucyl)amino]-2-oxo-4-phenylbutyl]phenylphosphonate] |  | inhibition at 0.1 µM: 90%
CC(C)C[C@H](NC(=O)OCc1ccccc1)C(=O)N[C@@H](Cc1ccccc1)C(=O)COP(=O)(OCCN1CCCC1=O)c1ccccc1 (stereo partly drawn) [Example 51, (3S)-[3-[(N-Benzyloxycarbonyl-L-leucyl)amino]-2-oxo-4-phenylbutyl] 2-(2-oxopyrrolidin-1-yl)ethyl phenylphosphonate] | 26000 M⁻¹ s⁻¹ | 
COP(=O)(O)C(=O)[C@H](CC(C)C)NC(=O)[C@H](CC(C)C)NC(=O)OCc1ccccc1 [Example 65, Methyl Hydrogen N-Benzyloxycarbonyl-L-leucyl-L-leucylphosphonate] |  | inhibition at 0.1 µM: 19%
COc1cccc(P(=O)(OCC(=O)[C@H](Cc2ccccc2)NC(=O)[C@H](CC(C)C)NC(=O)OCc2ccccc2)c2ccccc2)c1 (stereo partly drawn) [Example 59, (3S)-[3-[(N-Benzyloxycarbonyl-L-leucyl)amino]-2-oxo-4-phenylbutyl] (3-methoxylphenyl)(phenyl)phosphinate] | 163000 M⁻¹ s⁻¹ | 
COc1ccccc1P(=O)(OCC(=O)[C@H](Cc1ccccc1)NC(=O)[C@H](CC(C)C)NC(=O)OCc1ccccc1)c1ccccc1 (stereo partly drawn) [Example 58, (3S)-[3-[(N-Benzyloxycarbonyl-L-leucyl)amino]-2-oxo-4-phenylbutyl] (2-methoxyphenyl)(phenyl)phosphinate] | 150000 M⁻¹ s⁻¹ | 
CCCCOP(=O)(OCCCC)OCC(=O)[C@H](Cc1ccccc1)NC(=O)[C@H](CC(C)C)NC(=O)OCc1ccccc1 [Example 43, Dibutyl (3S)-[3-[(N-Benzyloxycarbonyl-L-leucyl)amino]-2-oxo-4-phenylbutyl] phosphate] | 40000 M⁻¹ s⁻¹ | 
